Where a SMILES comes first, the peptide text is derived from it. Bridges are numbered along the chain shown (N, C = ends). [ ]: non-standard residue; d: D form. hPhe(3-Cl-4-CF3) = N[C@@H](CCc1ccc(C(F)(F)F)c(Cl)c1)C(=O)O; NPrPhe(4-CF3) = CCCN[C@@H](Cc1ccc(C(F)(F)F)cc1)C(=O)O; NMeGly(cPent) = CN[C@H](C(=O)O)C1CCCC1; Pro(4,4-F2) = O=C(O)[C@@H]1CC(F)(F)CN1; Hyp = O=C(O)[C@@H]1C[C@@H](O)CN1; NMeD = CN[C@@H](CC(=O)O)C(=O)O; NMeL = CN[C@@H](CC(C)C)C(=O)O; NMeA = CN[C@@H](C)C(=O)O; Ac5c = NC1(C(=O)O)CCCC1; Aze = O=C(O)[C@@H]1CCN1; Ac4c = NC1(C(=O)O)CCC1; Sar = CNCC(=O)O
Tests used:
[1] = target: GDP-bound NRAS wild-type protein (Homo sapiens, UniProt P01111); test: Binding to NRAS by surface plasmon resonance (SPR), Single Cycle Kinetics; conditions: KD ratio NRAS/KRAS, SPR
[2] = target: GDP-bound HRAS wild-type protein (Homo sapiens, UniProt P01112); test: Binding to HRAS by surface plasmon resonance (SPR), Single Cycle Kinetics; conditions: KD ratio HRAS/KRAS, SPR
Chain of GDP-bound HRAS wild-type protein (P01112 whole entry): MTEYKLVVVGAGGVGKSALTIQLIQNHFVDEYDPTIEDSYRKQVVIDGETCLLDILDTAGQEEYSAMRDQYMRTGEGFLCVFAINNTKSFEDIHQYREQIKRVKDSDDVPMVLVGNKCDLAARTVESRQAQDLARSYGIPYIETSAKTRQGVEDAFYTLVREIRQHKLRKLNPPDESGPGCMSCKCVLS

Chain of GDP-bound NRAS wild-type protein (P01111 whole entry): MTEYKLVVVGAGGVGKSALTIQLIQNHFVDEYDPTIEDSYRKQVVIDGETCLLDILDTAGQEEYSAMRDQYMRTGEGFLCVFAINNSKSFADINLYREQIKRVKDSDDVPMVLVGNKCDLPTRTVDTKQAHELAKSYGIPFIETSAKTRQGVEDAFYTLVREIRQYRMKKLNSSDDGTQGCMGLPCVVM

SMILES	NRAS/KRAS (ratio of KD value with respect to GDP-bound NRAS wild-type protein to KD value with respect to KRAS) [1]	HRAS/KRAS (ratio of KD value with respect to GDP-bound HRAS wild-type protein to KD value with respect to KRAS) [2]
CCCN1C(=O)CN(C)C(=O)[C@@H]2CCN2C(=O)[C@H]([C@@H](C)CC)NC(=O)[C@H](CC(C)C)N(C)C(=O)C[C@@H](C(=O)N(C)C)N(C)C(=O)[C@H](C2CCCC2)N(C)C(=O)C2(CCC2)NC(=O)[C@@H]2CCCN2C(=O)[C@H](CCc2ccc(C(F)(F)F)c(Cl)c2)NC(=O)CN(C)C(=O)[C@@H]1Cc1ccc(C(F)(F)F)cc1 [PP0430] ([NMeL]I[Aze][Sar][NPrPhe(4-CF3)][Sar][hPhe(3-Cl-4-CF3)]P[Ac4c][NMeGly(cPent)][NMeD]-NMe2; lactam N-11)	B (a compound having 3 or more and less than 10 is denoted as B)	B (a compound having 3 or more and less than 10 is denoted as B)
CCCN1C(=O)CN(C)C(=O)[C@@H]2CCN2C(=O)[C@H]([C@@H](C)CC)NC(=O)[C@H](CC(C)C)N(C)C(=O)C[C@@H](C(=O)N(C)C)N(C)C(=O)[C@H](C2CCCC2)N(C)C(=O)C2(CCCC2)NC(=O)[C@@H]2CC(F)(F)CN2C(=O)[C@H](CCc2ccc(C(F)(F)F)c(Cl)c2)NC(=O)CN(C)C(=O)[C@@H]1Cc1ccc(C(F)(F)F)cc1 [PP0431] ([NMeL]I[Aze][Sar][NPrPhe(4-CF3)][Sar][hPhe(3-Cl-4-CF3)][Pro(4,4-F2)][Ac5c][NMeGly(cPent)][NMeD]-NMe2; lactam N-11)	B (a compound having 3 or more and less than 10 is denoted as B)	C (A compound having a KD ratio of 0.1 or more and less than 3 is denoted as C)
CCCN1C(=O)CN(C)C(=O)[C@@H]2CCN2C(=O)[C@H]([C@@H](C)CC)NC(=O)[C@H](CC(C)C)N(C)C(=O)C[C@@H](C(=O)N(C)C)N(C)C(=O)[C@H](C2CCCC2)N(C)C(=O)C2(CCC2)NC(=O)[C@@H]2CC(F)(F)CN2C(=O)[C@H](CCc2ccc(C(F)(F)F)c(Cl)c2)NC(=O)CN(C)C(=O)[C@@H]1Cc1ccc(C(F)(F)F)cc1 [PP0432] ([NMeL]I[Aze][Sar][NPrPhe(4-CF3)][Sar][hPhe(3-Cl-4-CF3)][Pro(4,4-F2)][Ac4c][NMeGly(cPent)][NMeD]-NMe2; lactam N-11)	B (a compound having 3 or more and less than 10 is denoted as B)	B (a compound having 3 or more and less than 10 is denoted as B)
CCCN1C(=O)CN(C)C(=O)[C@@H]2CCN2C(=O)[C@H]([C@@H](C)CC)NC(=O)[C@H](CC(C)C)N(C)C(=O)C[C@@H](C(=O)N(C)C)N(C)C(=O)[C@H](C2CCCC2)N(C)C(=O)C2(CCCC2)NC(=O)[C@@H]2C[C@@H](OCC)CN2C(=O)[C@H](CCc2ccc(C(F)(F)F)c(Cl)c2)NC(=O)CN(C)C(=O)[C@@H]1Cc1ccc(C(F)(F)F)cc1 [PP0433] ([NMeL]I[Aze][Sar][NPrPhe(4-CF3)][Sar][hPhe(3-Cl-4-CF3)][Hyp](Et)[Ac5c][NMeGly(cPent)][NMeD]-NMe2; lactam N-11)	B (a compound having 3 or more and less than 10 is denoted as B)	B (a compound having 3 or more and less than 10 is denoted as B)
CCCN1C(=O)[C@@H]2CCN2C(=O)[C@H](C)N(C)C(=O)[C@H]([C@@H](C)CC)NC(=O)[C@H](CC(C)C)N(C)C(=O)C[C@@H](C(=O)N(C)C)N(C)C(=O)[C@H](C2CCCC2)N(C)C(=O)C2(CCC2)NC(=O)[C@@H]2CCCN2C(=O)[C@H](CCc2ccc(C(F)(F)F)c(Cl)c2)NC(=O)CN(C)C(=O)[C@@H]1Cc1ccc(C(F)(F)F)cc1 [PP0435] ([NMeL]I[NMeA][Aze][NPrPhe(4-CF3)][Sar][hPhe(3-Cl-4-CF3)]P[Ac4c][NMeGly(cPent)][NMeD]-NMe2; lactam N-11)	C (A compound having a KD ratio of 0.1 or more and less than 3 is denoted as C)	C (A compound having a KD ratio of 0.1 or more and less than 3 is denoted as C)
CCCN1C(=O)[C@@H]2CCN2C(=O)[C@H](C)N(C)C(=O)[C@H]([C@@H](C)CC)NC(=O)[C@H](CC(C)C)N(C)C(=O)C[C@@H](C(=O)N(C)C)N(C)C(=O)[C@H](C2CCCC2)N(C)C(=O)C2(CCCC2)NC(=O)[C@@H]2CC(F)(F)CN2C(=O)[C@H](CCc2ccc(C(F)(F)F)c(Cl)c2)NC(=O)CN(C)C(=O)[C@@H]1Cc1ccc(C(F)(F)F)cc1 [PP0436] ([NMeL]I[NMeA][Aze][NPrPhe(4-CF3)][Sar][hPhe(3-Cl-4-CF3)][Pro(4,4-F2)][Ac5c][NMeGly(cPent)][NMeD]-NMe2; lactam N-11)	C (A compound having a KD ratio of 0.1 or more and less than 3 is denoted as C)	C (A compound having a KD ratio of 0.1 or more and less than 3 is denoted as C)
CCCN1C(=O)[C@@H]2CCN2C(=O)[C@H](C)N(C)C(=O)[C@H]([C@@H](C)CC)NC(=O)[C@H](CC(C)C)N(C)C(=O)C[C@@H](C(=O)N(C)C)N(C)C(=O)[C@H](C2CCCC2)N(C)C(=O)C2(CCC2)NC(=O)[C@@H]2CC(F)(F)CN2C(=O)[C@H](CCc2ccc(C(F)(F)F)c(Cl)c2)NC(=O)CN(C)C(=O)[C@@H]1Cc1ccc(C(F)(F)F)cc1 [PP0437] ([NMeL]I[NMeA][Aze][NPrPhe(4-CF3)][Sar][hPhe(3-Cl-4-CF3)][Pro(4,4-F2)][Ac4c][NMeGly(cPent)][NMeD]-NMe2; lactam N-11)	C (A compound having a KD ratio of 0.1 or more and less than 3 is denoted as C)	B (a compound having 3 or more and less than 10 is denoted as B)
CCCN1C(=O)[C@@H]2CCN2C(=O)[C@H](C)N(C)C(=O)[C@H]([C@@H](C)CC)NC(=O)[C@H](CC(C)C)N(C)C(=O)C[C@@H](C(=O)N(C)C)N(C)C(=O)[C@H](C2CCCC2)N(C)C(=O)C2(CCCC2)NC(=O)[C@@H]2C[C@@H](OCC)CN2C(=O)[C@H](CCc2ccc(C(F)(F)F)c(Cl)c2)NC(=O)CN(C)C(=O)[C@@H]1Cc1ccc(C(F)(F)F)cc1 [PP0438] ([NMeL]I[NMeA][Aze][NPrPhe(4-CF3)][Sar][hPhe(3-Cl-4-CF3)][Hyp](Et)[Ac5c][NMeGly(cPent)][NMeD]-NMe2; lactam N-11)	C (A compound having a KD ratio of 0.1 or more and less than 3 is denoted as C)	C (A compound having a KD ratio of 0.1 or more and less than 3 is denoted as C)
CCCN1C(=O)[C@@H]2CCN2C(=O)CN(C)C(=O)[C@H]([C@@H](C)CC)NC(=O)[C@H](CC(C)C)N(C)C(=O)C[C@@H](C(=O)N(C)C)N(C)C(=O)[C@H](C2CCCC2)N(C)C(=O)C2(CCCC2)NC(=O)[C@@H]2CCCN2C(=O)[C@H](CCc2ccc(C(F)(F)F)c(Cl)c2)NC(=O)CN(C)C(=O)[C@@H]1Cc1ccc(C(F)(F)F)cc1 [PP0440] ([NMeL]I[Sar][Aze][NPrPhe(4-CF3)][Sar][hPhe(3-Cl-4-CF3)]P[Ac5c][NMeGly(cPent)][NMeD]-NMe2; lactam N-11)	C (A compound having a KD ratio of 0.1 or more and less than 3 is denoted as C)	B (a compound having 3 or more and less than 10 is denoted as B)
CCCN1C(=O)[C@@H]2CCN2C(=O)CN(C)C(=O)[C@H]([C@@H](C)CC)NC(=O)[C@H](CC(C)C)N(C)C(=O)C[C@@H](C(=O)N(C)C)N(C)C(=O)[C@H](C2CCCC2)N(C)C(=O)C2(CCC2)NC(=O)[C@@H]2CCCN2C(=O)[C@H](CCc2ccc(C(F)(F)F)c(Cl)c2)NC(=O)CN(C)C(=O)[C@@H]1Cc1ccc(C(F)(F)F)cc1 [PP0441] ([NMeL]I[Sar][Aze][NPrPhe(4-CF3)][Sar][hPhe(3-Cl-4-CF3)]P[Ac4c][NMeGly(cPent)][NMeD]-NMe2; lactam N-11)	C (A compound having a KD ratio of 0.1 or more and less than 3 is denoted as C)	C (A compound having a KD ratio of 0.1 or more and less than 3 is denoted as C)
CCCN1C(=O)[C@@H]2CCN2C(=O)CN(C)C(=O)[C@H]([C@@H](C)CC)NC(=O)[C@H](CC(C)C)N(C)C(=O)C[C@@H](C(=O)N(C)C)N(C)C(=O)[C@H](C2CCCC2)N(C)C(=O)C2(CCCC2)NC(=O)[C@@H]2CC(F)(F)CN2C(=O)[C@H](CCc2ccc(C(F)(F)F)c(Cl)c2)NC(=O)CN(C)C(=O)[C@@H]1Cc1ccc(C(F)(F)F)cc1 [PP0442] ([NMeL]I[Sar][Aze][NPrPhe(4-CF3)][Sar][hPhe(3-Cl-4-CF3)][Pro(4,4-F2)][Ac5c][NMeGly(cPent)][NMeD]-NMe2; lactam N-11)	C (A compound having a KD ratio of 0.1 or more and less than 3 is denoted as C)	C (A compound having a KD ratio of 0.1 or more and less than 3 is denoted as C)
CCCN1C(=O)[C@@H]2CCN2C(=O)CN(C)C(=O)[C@H]([C@@H](C)CC)NC(=O)[C@H](CC(C)C)N(C)C(=O)C[C@@H](C(=O)N(C)C)N(C)C(=O)[C@H](C2CCCC2)N(C)C(=O)C2(CCC2)NC(=O)[C@@H]2CC(F)(F)CN2C(=O)[C@H](CCc2ccc(C(F)(F)F)c(Cl)c2)NC(=O)CN(C)C(=O)[C@@H]1Cc1ccc(C(F)(F)F)cc1 [PP0443] ([NMeL]I[Sar][Aze][NPrPhe(4-CF3)][Sar][hPhe(3-Cl-4-CF3)][Pro(4,4-F2)][Ac4c][NMeGly(cPent)][NMeD]-NMe2; lactam N-11)	C (A compound having a KD ratio of 0.1 or more and less than 3 is denoted as C)	C (A compound having a KD ratio of 0.1 or more and less than 3 is denoted as C)

Reference: patent publication US20250230193A1, “CYCLIC COMPOUND HAVING SELECTIVE KRAS INHIBITORY EFFECT ON HRAS AND NRAS” (CHUGAI SEIYAKU KABUSHIKI KAISHA, priority 2022, published 2025)
